# Source: patent publication US7998978B2 (Pfizer Inc., priority 2006, dated 2011)
# pKi: −log10 of the molar value.
# Molecular target: T1, JNK1α1 (Homo sapiens, UniProt P45983)
# T1 construct: catalytic domain containing amino acids 1-364 and N-terminal hexahistidine tag; hexahistidine (His6) (N); made in house; host or cells: E. coli BL21 (DE3)
# Test: Coupled spectrophotometric (PK/LDH) JNK1α1 assay: % inhibition and Ki determination
# Type: biochemical
# Conditions: @1 uM; read-out: % Inhibition JNK-1
# Outline: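 Initial rates were taken from the absorbance decrease at 340 nm at 30° C. Ki was fitted with a tight-binding model over 11 concentrations (top 100 μM); single-point inhibition was tested at 1 or 10 μM.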
# T1 sequence (P45983 1-364): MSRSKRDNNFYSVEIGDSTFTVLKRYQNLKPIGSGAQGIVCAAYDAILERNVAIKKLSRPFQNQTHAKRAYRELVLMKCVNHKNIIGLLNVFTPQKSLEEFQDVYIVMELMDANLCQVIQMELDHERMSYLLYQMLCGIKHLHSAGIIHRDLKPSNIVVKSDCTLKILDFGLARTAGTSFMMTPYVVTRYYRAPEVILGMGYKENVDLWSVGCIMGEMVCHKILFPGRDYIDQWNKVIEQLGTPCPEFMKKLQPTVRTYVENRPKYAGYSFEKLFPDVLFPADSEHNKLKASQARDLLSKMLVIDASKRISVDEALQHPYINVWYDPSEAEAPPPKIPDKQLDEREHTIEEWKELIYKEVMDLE
row,inhibition at 1 µM,Structure (SMILES)
1,18%,"COc1ncccc1NC(=O)c1cccc2cnc(N[C@H]3CC[C@H](O)CC3)nc12 [Example 316, 2-[(trans-4-hydroxycyclohexyl)amino]-N-(2-methoxypyridin-3-yl)quinazoline-8-carboxamide]"
2,18%,"O[C@H]1CC[C@H](Nc2ncc3ccc(OC(CN4CCOCC4)c4ccccc4)cc3n2)CC1 (stereo partly drawn) [Example 298, trans-4-{[7-(2-morpholin-4-yl-1-phenylethoxy)quinazolin-2-yl]amino}cyclohexanol]"
3,69%,"CN1C(=O)OC[C@@H]1COc1ccc2cnc(N[C@H]3CC[C@H](O)CC3)nc2c1 [Example 289, 4-[({2-[(trans-4-hydroxycyclohexyl)amino]quinazolin-7-yl}oxy)methyl]-3-methyl-1,3-oxazolidin-2-one]"
4,22%,"O[C@H]1CC[C@H](Nc2ncc3ccc(OC[C@@H]4CCCN4Cc4ccccc4)cc3n2)CC1 [Example 276, trans-4-[(7-{[(2S)-1-benzylpyrrolidin-2-yl]methoxy}quinazolin-2-yl)amino]cyclohexanol]"
5,63%,"COCCOc1ccc2cnc(N[C@H]3CC[C@H](O)CC3)nc2c1 [Example 272, trans-4-{[7-(2-methoxyethoxy)quinazolin-2-yl]amino)cyclohexanol]"
6,11%,"CCc1ccc(C)nc1NC(=O)c1cccc2cnc(N[C@H]3CC[C@H](O)CC3)nc12 [Example 314, N-(3-ethyl-6-methylpyridin-2-yl)-2-[(trans-4-hydroxycyclohexyl)amino]quinazoline-8-carboxamide]"
7,53%,"O[C@H]1CC[C@H](Nc2ncc3ccc(OCC(F)(F)c4ccccn4)cc3n2)CC1 [Example 290, trans-4-{[7-(2,2-difluoro-2-pyridin-2-ylethoxy)quinazolin-2-yl]amino}cyclohexanol]"

# Same assay, conditions: @10 uM; read-out: % Inhibition JNK-1
row,inhibition at 10 µM,Structure (SMILES)
1,40%,"O=C(NCc1nnc(C2CC2)[nH]1)c1cccc2cnc(N[C@H]3CC[C@H](O)CC3)nc12 [Example 490, N-[(5-cyclopropyl-4H-1,2,4-triazol-3-yl)methyl]-2-[(trans-4-hydroxycyclohexyl)amino]quinazoline-8-carboxamide]"
2,15%,"c1ncc(-c2ccc(CNc3cc4cc(-c5cn[nH]c5)ccc4cn3)cc2)cn1 [Example 235, 6-(1H-pyrazol-4-yl)-N-(4-pyrimidin-5-ylbenzyl)isoquinolin-3-amine]"
3,60%,"O=C(NCc1noc(-c2ccccc2)n1)c1cccc2cnc(N[C@H]3CC[C@H](O)CC3)nc12 [Example 501, 2-[(trans-4-hydroxycyclohexyl)amino]-N-[(5-phenyl-1,2,4-oxadiazol-3-yl)methyl]quinazoline-8-carboxamide]"
4,38%,"CN1CCCC(COc2cccc3cnc(N[C@H]4CC[C@H](O)CC4)nc23)C1 (stereo partly drawn) [Example 253, trans-4-({8-[(1-methylpiperidin-3-yl)methoxy]quinazolin-2-yl}amino)cyclohexanol]"
5,47%,"Cc1ccn2cc(CCNC(=O)c3cccc4cnc(N[C@H]5CC[C@H](O)CC5)nc34)nc2n1 [Example 524, 2-[(trans-4-hydroxycyclohexyl)amino]-N-[2-(7-methylimidazo[1,2-a]pyrimidin-2-yl)ethyl]quinazoline-8-carboxamide]"

# Same assay, conditions: JNK-1
row,pKi,Structure (SMILES)
1,5.71,"Cc1ccc2cnc(N[C@H]3CC[C@H](O)CC3)nc2c1OCC(=O)N(C)CCO [Example 212, 2-({2-[(trans-4-hydroxycyclohexyl)amino]-7-methylquinazolin-8-yl}oxy)-N-(2-hydroxyethyl)-N-methylacetamide]"
2,7.77,"O=C(CN1N=C(c2ccccc2)CCC1=O)Nc1cc2cc(-c3cn[nH]c3)ccc2cn1 [Example 34, 2-(6-oxo-3-phenyl-5,6-dihydropyridazin-1(4H)-yl)-N-[6-(1H-pyrazol-4-yl)isoquinolin-3-yl]acetamide]"
3,6.59,"CCC1(COc2cccc3cnc(N[C@H]4CC[C@H](O)CC4)nc23)COC1 [Example 246, trans-4-({8-[(3-ethyloxetan-3-yl)methoxy]quinazolin-2-yl}amino)cyclohexanol]"
4,6.07,"O=C(NCCC1CCCCO1)c1ccc2cnc(N[C@H]3CC[C@H](O)CC3)nc2c1 (stereo partly drawn) [Example 343, 2-[(trans-4-hydroxycyclohexyl)amino]-N-[2-(tetrahydro-2H-pyran-2-yl)ethyl]quinazoline-7-carboxamide]"
5,8.52,"O=C(COCc1ccccc1)Nc1cc2cc(-c3cn[nH]c3)ccc2cn1 [Example 49, 2-(benzyloxy)-N-[6-(1H-pyrazol-4-yl)isoquinolin-3-yl]acetamide]"
6,5.97,"Cc1ccc2cnc(N[C@H]3CC[C@H](O)CC3)nc2c1OCC(=O)N(C)C [Example 207, 2-({2-[(trans-4-hydroxycyclohexyl)amino]-7-methylquinazolin-8-yl}oxy)-N,N-dimethylacetamide]"
7,6.06,"O=C(NC1CCS(=O)(=O)C1)c1ccc2cnc(N[C@H]3CC[C@H](O)CC3)nc2c1 (stereo partly drawn) [Example 344, N-(1,1-dioxidotetrahydro-3-thienyl)-2-[(trans-4-hydroxycyclohexyl)amino]quinazoline-7-7-carboxamide]"
8,6.70,"O[C@H]1CC[C@H](Nc2ncc3ccc(OCC4CCOCC4)cc3n2)CC1 [Example 158, trans-4-{[7-(tetrahydro-2H-pyran-4-ylmethoxy)quinazolin-2-yl]amino}cyclohexanol]"
9,6.73,"CC[C@H](C)[C@@H](CO)NC(=O)c1ccc2cnc(NC3CCCCC3)nc2c1 [Example 380, 2-(cyclohexylamino)-N-[(1S,2S)-1-(hydroxymethyl)-2-methylbutyl]quinazoline-7-carboxamide]"
10,6.53,"O[C@H]1CC[C@H](Nc2ncc3cccc(OCC4CCCCO4)c3n2)CC1 (stereo partly drawn) [Example 166, trans-4-{[8-(tetrahydro-2H-pyran-2-ylmethoxy)quinazolin-2-yl]amino}cyclohexanol]"
11,6.60,"O=C(NCC1CCOC1)c1cccc2cnc(N[C@H]3CC[C@H](O)CC3)nc12 (stereo partly drawn) [Example 107, 2-[(trans-4-hydroxycyclohexyl)amino]-N-(tetrahydrofuran-3-ylmethyl)quinazoline-8-carboxamide]"
12,6.06,"c1cc(OC2CCOCC2)c2nc(NC3CCOCC3)ncc2c1 [Example 175, N-(tetrahydro-2H-pyran-4-yl)-8-(tetrahydro-2H-pyran-4-yloxy)quinazolin-2-amine]"
13,7.51,"CC[C@@H](NC(=O)c1ccc2cnc(N[C@H]3CC[C@H](O)CC3)nc2c1)c1ccccc1 [Example 93, 2-[(trans-4-hydroxycyclohexyl)amino]-N-[(1R)-1-phenylpropyl]quinazoline-7-carboxamide]"
14,6.20,"C[C@H](CO)NC(=O)c1cccc2cnc(N[C@H]3CC[C@H](O)CC3)nc12 [Example 123, 2-[(trans-4-hydroxycyclohexyl)amino]-N-[(1R)-2-hydroxy-1-methylethyl]quinazoline-8-carboxamide]"
15,6.90,"CC(=O)N[C@H]1CC[C@H](Nc2ncc3cccc(C(=O)NC(C)(C)CO)c3n2)CC1 [Example 134, 2-{[trans-4-(acetylamino)cyclohexyl]amino}-N-(2-hydroxy-1,1-dimethylethyl)quinazoline-8-carboxamide]"
16,7.62,"CC(=O)N1CCC(C(=O)Nc2cc3cc(-c4cn[nH]c4)ccc3cn2)CC1 [Example 15, 1-acetyl-N-[6-(1H-pyrazol-4-yl)isoquinolin-3-yl]piperidine-4-carboxamide]"
17,7.15,"O[C@H]1CC[C@H](Nc2ncc3ccc(O[C@H]4CCOC4)cc3n2)CC1 [Example 160, trans-4-({7-[(3S)-tetrahydrofuran-3-yloxy]quinazolin-2-yl}amino)cyclohexanol]"
18,6.84,CC(=O)N1CCC(c2cccc3cnc(N[C@H]4CC[C@H](O)CC4)nc23)C1 (stereo partly drawn) [Example 197]
19,6.50,"CC(C)[C@@H](CO)NC(=O)c1ccc2cnc(NC3CCCCC3)nc2c1 [Example 389, 2-(cyclohexylamino)-N-[(1S)-1-(hydroxymethyl)-2-methylpropyl]quinazoline-7-carboxamide]"
20,8.15,"O=C(CCc1ccc(C(F)(F)F)cc1)Nc1cc2cc(-c3cn[nH]c3)ccc2cn1 [Example 39, N-[6-(1H-pyrazol-4-yl)isoquinolin-3-yl]-3-[4-(trifluoromethyl)phenyl]propanamide]"
21,5.76,"O=C(NCC1(O)CCOCC1)c1ccc2cnc(N[C@H]3CC[C@H](O)CC3)nc2c1 [Example 360, 2-[(trans-4-hydroxycyclohexyl)amino]-N-[(4-hydroxytetrahydro-2H-pyran-4-yl)methyl]quinazoline-7-carboxamide]"
22,7.68,"COc1ccccc1CC(=O)Nc1cc2cc(-c3cn[nH]c3)ccc2cn1 [Example 53, 2-(2-methoxyphenyl)-N-[6-(1H-pyrazol-4-yl)isoquinolin-3-yl]acetamide]"
23,5.48,"c1cc(CNc2cc3cc(-c4cn[nH]c4)ccc3cn2)cc(-c2cncnc2)c1 [Example 223, 6-(1H-pyrazol-4-yl)-N-(3-pyrimidin-5-ylbenzyl)isoquinolin-3-amine]"
24,5.28,"N#Cc1cc(CNc2cc3cc(-c4cn[nH]c4)ccc3cn2)ccc1F [Example 226, 2-fiuoro-5-({[6-(1H-pyrazol-4-yl)isoquinolin-3-yl]amino}methyl)benzonitrile]"
25,8.10,"CN(C)C(=O)CCC(=O)Nc1cc2cc(-c3cn[nH]c3)ccc2cn1 [Example 40, N,N-dimethyl-N′-[6-(1H-pyrazol-4-yl)isoquinolin-3-yl]succinamide]"
26,6.06,"FCCN[C@H]1CC[C@H](Nc2ncc3cccc(OC4CCOCC4)c3n2)CC1 [Example 189, trans-N-(2-fluoroethyl)-N′-[8-(tetrahydro-2H-pyran-4-yloxy)quinazolin-2-yl]cyclohexane-1,4-diamine]"
27,7.26,"COc1ccccc1C(CO)NC(=O)c1ccc2cnc(N[C@H]3CC[C@H](O)CC3)nc2c1 (stereo partly drawn) [Example 97, 2-[(trans-4-hydroxycyclohexyl)amino]-N-[2-hydroxy-1-(2-methoxyphenyl)ethyl]quinazoline-7-carboxamide]"
